Reference: patent US20220324835A1 (Nurix Therapeutics, Inc., priority 2018, published 2022)

Tests used:
[1] = target: T1, Cbl-b (Homo sapiens, UniProt Q13191); test: Cbl-b inhibition assay (Cbl-b activity assay, FRET, Biological Example 1; 100 mM NaCl, 60 nM Src kinase); assay type: biochemical; conditions: upper bound stated in text lists; read-out: IC50 values in the Cbl-b inhibition assay of Biological Example 1
In short: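 TR-FRET assay using N-terminal biotinylated Avi-tagged Cbl-b bound to streptavidin-terbium, Src kinase for Cbl-b phosphorylation, and UbcH5B irreversibly conjugated to Bodipy-Fluorescein-ubiquitin. Phosphorylated Cbl-b binds UbcH5B-Ub, bringing the fluorophores together; inhibition is read as loss of FRET signal.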

[2] = tested on: T-cell; test: IL-2 secretion from T-cells co-stimulated with anti-CD3 and anti-CD28 antibody (Biological Example 2); assay type: cell-based, human; conditions: Homo sapiens, T-cell, fold change over baseline (anti-CD3/anti-CD28 stimulated T-cells without inhibitor), read-out: IL-2 secretion Anti-CD3/Anti-CD28 stimulation; for fold induction at 0.3 µM: 0.3 μM Cbl-b inhibitor; for fold induction at 1 µM: 1 μM Cbl-b inhibitor
In short: (§1)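 No assay protocol given; T-cells stimulated with anti-CD3 alone or anti-CD3 plus anti-CD28, with or without Cbl-b inhibitor. Activation read as IL-2 secretion or CD25 surface staining, expressed as fold over baseline from uninhibited cells […].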

[3] = tested on: T-cell; test: IL-2 secretion from T-cells stimulated with anti-CD3 antibody alone (Biological Example 2); assay type: cell-based, human; conditions: Homo sapiens, T-cell; 1 μM Cbl-b inhibitor; fold change over baseline (anti-CD3/anti-CD28 stimulated T-cells without inhibitor); read-out: IL-2 secretion Anti-CD3 stimulation
[4] = tested on: T-cell; test: CD25 cell surface staining on T-cells co-stimulated with anti-CD3 and anti-CD28 antibody (Biological Example 2); assay type: cell-based, human; conditions: Homo sapiens, T-cell, fold change over baseline (anti-CD3/anti-CD28 stimulated T-cells without inhibitor), read-out: CD25 staining Anti-CD3/Anti-CD28 stimulation; for fold induction at 0.3 µM: 0.3 μM Cbl-b inhibitor; for fold induction at 1 µM: 1 μM Cbl-b inhibitor
In short: as §1

[5] = tested on: T-cell; test: CD25 cell surface staining on T-cells stimulated with anti-CD3 antibody alone (Biological Example 2); assay type: cell-based, human; conditions: Homo sapiens, T-cell; 1 μM Cbl-b inhibitor; fold change over baseline (anti-CD3/anti-CD28 stimulated T-cells without inhibitor); read-out: CD25 staining Anti-CD3 stimulation
[6] = target: T1, Cbl-b; test: Cbl-b activity assay (Cbl-b inhibition assay), TR-FRET of Cbl-b interaction with UbcH5B-Ub; assay type: biochemical; conditions: assay buffer with 100 mM NaCl, 60 nM Src kinase; read-out: Cbl-b activity IC50
In short: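 TR-FRET readout of Cbl-b binding to Bodipy-fluorescein N-terminally labeled Ub conjugated to UbcH5B C85K, measured with compound present. After compound incubation, 60 nM Src kinase with 1 mM ATP and 5 mM MgCl2 (final) was added for 1.5 h, then a further 1 h incubation; asterisked values used 50 mM NaCl buffer and 30 nM Src.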

T1 sequence (Q13191 36-427): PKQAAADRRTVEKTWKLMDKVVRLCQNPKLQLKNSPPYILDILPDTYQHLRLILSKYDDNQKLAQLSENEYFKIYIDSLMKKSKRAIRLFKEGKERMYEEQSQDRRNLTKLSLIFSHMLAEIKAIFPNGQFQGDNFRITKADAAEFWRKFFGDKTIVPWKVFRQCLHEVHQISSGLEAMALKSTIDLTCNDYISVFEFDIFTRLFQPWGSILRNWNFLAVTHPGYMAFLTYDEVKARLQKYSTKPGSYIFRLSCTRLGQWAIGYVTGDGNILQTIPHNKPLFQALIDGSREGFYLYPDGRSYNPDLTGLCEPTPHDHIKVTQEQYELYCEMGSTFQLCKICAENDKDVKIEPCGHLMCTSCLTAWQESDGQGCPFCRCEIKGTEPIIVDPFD

Row | SMILES | IC50 [1] [nM] | fold induction at 0.3 µM [2] | fold induction at 1 µM [2] | fold induction at 1 µM [3] | fold induction at 0.3 µM [4] | fold induction at 1 µM [4] | fold induction at 1 µM [5] | IC50 [6] [nM]
1 | CC1C(C(F)(F)F)CCN1Cc1cc2c(c(C(F)(F)F)c1)CN(c1cccc(C3(Cc4nncn4C)COC3)c1)C2=O (stereo not drawn) [Example 588, 6-((2-Methyl-3-(trifluoromethyl)pyrrolidin-1-yl)methyl)-2-(3-(3-((4-methyl-4H-1,2,4-triazol-3-yl)methyl)oxetan-3-yl)phenyl)-4-(trifluoromethyl)isoindolin-1-one] | ≤ 100 | 5 to 7.5 | > 7.5 | 0.051 to 0.1 | 1.01 to 1.3 | 1.31 to 1.5 | > 1 | < 100
2 | Cn1cnnc1CC1(c2cccc(NC(=O)c3cc(CN4CCCCC4)nc(C4CC4)n3)c2)COC1 [Example 589, 2-Cyclopropyl-N-(3-(3-((4-methyl-4H-1,2,4-triazol-3-yl)methyl)oxetan-3-yl)phenyl)-6-(piperidin-1-ylmethyl)pyrimidine-4-carboxamide] | ≤ 100 | > 7.5 | > 7.5 | > 0.201 | > 1.76 | > 1.76 | > 1 | < 100
3 | CC(c1cc(C(=O)Nc2cccc(C3(Cc4nncn4C)COC3)c2)nc(C2CC2)n1)N1CCCC1 (stereo not drawn) [Example 593, 2-Cyclopropyl-N-(3-(3-((4-methyl-4H-1,2,4-triazol-3-yl)methyl)oxetan-3-yl)phenyl)-6-(l-(pyrrolidin-1-yl)ethyl)pyrimidine-4-carboxamide] | ≤ 100 | > 7.5 | > 7.5 | > 0.201 | 1.31 to 1.5 | 1.31 to 1.5 | > 1 | < 100
4 | Cn1cnnc1CC1(c2cccc(N3Cc4c(cc(N5CC(C(F)F)C5)cc4C(F)(F)F)C3=O)c2)COC1 [Example 594, 6-(3-(Difluoromethyl)azetidin-1-yl)-2-(3-(3-((4-methyl-4H-1,2,4-triazol-3-yl)methyl)oxetan-3-yl)phenyl)-4-(trifluoromethyl)isoindolin-1-one] | ≤ 100 | 2.51 to 5 | 5 to 7.5 | 0.051 to 0.1 | 1.01 to 1.3 | 1.01 to 1.3 | 0.801 to 1 | < 100
5 | Cn1cnnc1CC1(c2cccc(N3Cc4c(cc(OC(F)F)cc4C(F)(F)F)C3=O)c2)COC1 [Example 595, 6-(Difluoromethoxy)-2-(3-(3-((4-methyl-4H-1,2,4-triazol-3-yl)methyl)oxetan-3-yl)phenyl)-4-(trifluoromethyl)isoindolin-1-one] | ≤ 100 | 2.51 to 5 | 5 to 7.5 | 0.051 to 0.1 | 1.01 to 1.3 | 1.31 to 1.5 | 0.801 to 1 | < 100
6 | Cc1cc(C(=O)Nc2cccc(C3(Cc4nncn4C)COC3)c2)n2nccc2n1 [Example 596, 5-Methyl-N-(3-(3-((4-methyl-4H-1,2,4-triazol-3-yl)methyl)oxetan-3-yl)phenyl)pyrazolo[1,5-a]pyrimidine-7-carboxamide] | ≤ 300 | 1.01 to 2.5 | 1.01 to 2.5 | < 0.05 | 1.01 to 1.3 | 1.01 to 1.3 | 0.601 to 0.8 | 100 to 300
7 | Cc1cc(C(=O)Nc2cccc(C3(Cc4nncn4C)COC3)c2)n2nc(C(F)(F)F)cc2n1 [Example 598, 5-Methyl-N-(3-(3-((4-methyl-4H-1,2,4-triazol-3-yl)methyl)oxetan-3-yl)phenyl)-2-(trifluoromethyl)pyrazolo[1,5-a]pyrimidine-7-carboxamide] | ≤ 300 | 1.01 to 2.5 | 1.01 to 2.5 | < 0.05 | 1.01 to 1.3 | 1.01 to 1.3 | 0.601 to 0.8 | 100 to 300
8 | Cc1cnn2c(C(=O)Nc3cccc(C4(Cc5nncn5C)COC4)c3)cc(C(F)(F)F)nc12 [Example 599, 3-methyl-N-(3-(3-((4-methyl-4H-1,2,4-triazol-3-yl)methyl)oxetan-3-yl)phenyl)-5-(trifluoromethyl)pyrazolo[1,5-a]pyrimidine-7-carboxamide] | ≤ 1000 | < 1 | 1.01 to 2.5 | < 0.05 | 1.01 to 1.3 | 1.01 to 1.3 | 0.601 to 0.8 | 301 to 1000
9 | Cn1cnnc1CC1(c2cccc(N3Cc4c(cc(N5CC(C(F)(F)F)C5)cc4C(F)(F)F)C3=O)c2)COC1 [Example 600, 2-(3-(3-((4-methyl-4H-1,2,4-triazol-3-yl)methyl)oxetan-3-yl)phenyl)-4-(trifluoromethyl)-6-(3-(trifluoromethyl)azetidin-1-yl)isoindolin-1-one] | ≤ 100 | 2.51 to 5 | > 7.5 | 0.051 to 0.1 | 1.01 to 1.3 | 1.01 to 1.3 | > 1 | < 100
10 | Cn1cnnc1CC1(c2cccc(N3Cc4c(cc(N5CCC(C(F)F)C5)cc4C(F)(F)F)C3=O)c2)COC1 (stereo not drawn) [Example 601, 6-(3-(difluoromethyl)pyrrolidin-1-yl)-2-(3-(3-((4-methyl-4H-1,2,4-triazol-3-yl)methyl)oxetan-3-yl)phenyl)-4-(trifluoromethyl)isoindolin-1-one] | ≤ 100 | 1.01 to 2.5 | 2.51 to 5 | < 0.05 | 1.01 to 1.3 | 1.01 to 1.3 | 0.601 to 0.8 | < 100
11 | Cn1cnnc1CC1(c2cccc(N3Cc4c(cc(N5CC6(C5)CC(F)(F)C6)cc4C(F)(F)F)C3=O)c2)COC1 [Example 602, 6-(6,6-difluoro-2-azaspiro[3.3]heptan-2-yl)-2-(3-(3-((4-methyl-4H-1,2,4-triazol-3-yl)methyl)oxetan-3-yl)phenyl)-4-(trifluoromethyl)isoindolin-1-one] | ≤ 100 | 5 to 7.5 | > 7.5 | 0.101 to 0.15 | 1.01 to 1.3 | 1.31 to 1.5 | > 1 | < 100
12 | Cn1cnnc1CC1(c2cccc(N3Cc4c(cc(N5CC6(CCC6(F)F)C5)cc4C(F)(F)F)C3=O)c2)COC1 [Example 603, 6-(5,5-difluoro-2-azaspiro[3.3]heptan-2-yl)-2-(3-(3-((4-methyl-4H-1,2,4-triazol-3-yl)methyl)oxetan-3-yl)phenyl)-4-(trifluoromethyl)isoindolin-1-one] | ≤ 100 | 1.01 to 2.5 | 2.51 to 5 | < 0.05 | 1.01 to 1.3 | 1.01 to 1.3 | 0.601 to 0.8 | < 100
13 | Cn1cnnc1CC1(c2cccc(NC(=O)c3cc(C4CC4)nc4ccnn34)c2)COC1 [Example 604, 5-cyclopropyl-N-(3-(3-((4-methyl-4H-1,2,4-triazol-3-yl)methyl)oxetan-3-yl)phenyl)pyrazolo[1,5-a]pyrimidine-7-carboxamide] | ≤ 100 | 1.01 to 2.5 | 2.51 to 5 | < 0.05 | 1.01 to 1.3 | 1.01 to 1.3 | 0.601 to 0.8 | < 100
14 | Cn1cnnc1CC1(c2cccc(NC(=O)c3ccnc4ccnn34)c2)COC1 [Example 605, N-(3-(3-((4-methyl-4H-1,2,4-triazol-3-yl)methyl)oxetan-3-yl)phenyl)pyrazolo[1,5-a]pyrimidine-7-carboxamide] | ≤ 300 | 1.01 to 2.5 | 2.51 to 5 | < 0.05 | 1.01 to 1.3 | 1.01 to 1.3 | 0.601 to 0.8 | 100 to 300
15 | Cc1cc(C(=O)Nc2cccc(C3(Cc4nncn4C)COC3)c2)n2ncc(C)c2n1 [Example 606, 3,5-dimethyl-N-(3-(3-((4-methyl-4H-1,2,4-triazol-3-yl)methyl)oxetan-3-yl)phenyl)pyrazolo[1,5-a]pyrimidine-7-carboxamide] | ≤ 100 | 2.51 to 5 | 2.51 to 5 | 0.051 to 0.1 | 1.01 to 1.3 | 1.01 to 1.3 | 0.801 to 1 | < 100
